# Molecular target: IKZF2 (Helios) (Homo sapiens, UniProt Q96SW2+Q9UKS7)
# Experiment: Prolabel quantification of IKZF2 protein levels in 293GT cells
# Type: cell-based
# Conditions: 24 h, Pro-label assay, 293GT cells, 10 μM, read-out: IKZF2 % protein reduction at 10 μM, 24 h
# Sequence of IKZF2 (Helios) (Q9UKS7 whole entry): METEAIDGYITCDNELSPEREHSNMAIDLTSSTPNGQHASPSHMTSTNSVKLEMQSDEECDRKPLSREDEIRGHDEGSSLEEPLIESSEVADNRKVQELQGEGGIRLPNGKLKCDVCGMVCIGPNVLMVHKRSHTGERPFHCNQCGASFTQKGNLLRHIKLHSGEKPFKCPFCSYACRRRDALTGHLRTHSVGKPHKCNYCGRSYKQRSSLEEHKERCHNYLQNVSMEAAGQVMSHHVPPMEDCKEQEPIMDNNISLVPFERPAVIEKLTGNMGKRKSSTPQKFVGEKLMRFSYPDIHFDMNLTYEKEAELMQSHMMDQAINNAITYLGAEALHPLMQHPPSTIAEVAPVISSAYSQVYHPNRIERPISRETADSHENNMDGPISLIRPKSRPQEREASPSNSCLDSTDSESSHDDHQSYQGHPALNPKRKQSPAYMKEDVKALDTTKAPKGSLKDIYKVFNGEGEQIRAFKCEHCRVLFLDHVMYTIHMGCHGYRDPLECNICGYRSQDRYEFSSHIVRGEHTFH
# Sequence of IKZF2 (Helios) (Q96SW2 whole entry): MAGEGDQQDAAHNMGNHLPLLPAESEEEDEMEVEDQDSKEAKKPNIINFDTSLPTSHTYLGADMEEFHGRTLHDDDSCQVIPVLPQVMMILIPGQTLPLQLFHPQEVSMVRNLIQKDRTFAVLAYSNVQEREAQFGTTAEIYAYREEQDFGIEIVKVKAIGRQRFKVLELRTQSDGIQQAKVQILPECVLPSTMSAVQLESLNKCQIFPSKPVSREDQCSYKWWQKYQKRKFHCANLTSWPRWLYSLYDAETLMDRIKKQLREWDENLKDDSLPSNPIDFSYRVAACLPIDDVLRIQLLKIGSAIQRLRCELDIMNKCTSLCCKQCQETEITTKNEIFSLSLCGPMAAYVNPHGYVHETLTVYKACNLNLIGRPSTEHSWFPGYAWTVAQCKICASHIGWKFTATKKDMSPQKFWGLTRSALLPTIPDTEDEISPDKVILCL
# Sequence of IKZF2 (Helios) (Q16531 whole entry partner): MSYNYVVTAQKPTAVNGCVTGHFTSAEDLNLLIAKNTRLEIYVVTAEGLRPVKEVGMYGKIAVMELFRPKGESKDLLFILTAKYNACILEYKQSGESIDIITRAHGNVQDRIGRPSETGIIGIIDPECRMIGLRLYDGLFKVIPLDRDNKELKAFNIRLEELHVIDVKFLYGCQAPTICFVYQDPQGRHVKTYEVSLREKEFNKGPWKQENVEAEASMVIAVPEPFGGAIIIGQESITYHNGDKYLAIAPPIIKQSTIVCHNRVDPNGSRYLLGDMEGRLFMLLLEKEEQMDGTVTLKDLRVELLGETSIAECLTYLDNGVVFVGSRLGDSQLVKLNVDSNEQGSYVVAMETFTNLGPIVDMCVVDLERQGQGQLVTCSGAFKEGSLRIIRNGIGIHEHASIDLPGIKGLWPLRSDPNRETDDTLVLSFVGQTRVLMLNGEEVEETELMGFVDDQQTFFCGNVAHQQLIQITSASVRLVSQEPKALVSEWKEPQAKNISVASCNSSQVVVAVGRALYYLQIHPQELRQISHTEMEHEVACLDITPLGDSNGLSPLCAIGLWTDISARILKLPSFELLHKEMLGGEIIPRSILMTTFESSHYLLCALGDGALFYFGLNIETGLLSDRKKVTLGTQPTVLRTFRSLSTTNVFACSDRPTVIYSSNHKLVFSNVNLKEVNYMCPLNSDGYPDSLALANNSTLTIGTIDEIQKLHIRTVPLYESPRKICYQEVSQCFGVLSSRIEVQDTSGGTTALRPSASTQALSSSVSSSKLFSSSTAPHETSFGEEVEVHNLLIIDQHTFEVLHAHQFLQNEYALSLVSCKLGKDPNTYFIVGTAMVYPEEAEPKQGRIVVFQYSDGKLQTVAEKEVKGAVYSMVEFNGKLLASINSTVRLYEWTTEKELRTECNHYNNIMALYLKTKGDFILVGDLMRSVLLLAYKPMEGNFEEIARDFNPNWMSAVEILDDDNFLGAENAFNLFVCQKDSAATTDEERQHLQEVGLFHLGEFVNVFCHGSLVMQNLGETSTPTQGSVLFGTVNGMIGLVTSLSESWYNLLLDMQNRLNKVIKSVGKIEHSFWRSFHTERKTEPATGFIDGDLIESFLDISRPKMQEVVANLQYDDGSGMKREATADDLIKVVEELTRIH
row,SMILES,IKZF2 % protein reduction at 10 µM
1,"CCN(CC12CC(F)(C1)C2)[C@H]1CCC[C@@H]1Oc1ccc2c(c1)CN(C1CCC(=O)NC1=O)C2=O (stereo partly drawn) [I-136, 3-(5-(((1S,2S)-2-(ethyl((3-fluorobicyclo[1.1.1]pentan-1-yl)methyl)amino)cyclopentyl)oxy)-1-oxoisoindolin-2-yl)piperidine-2,6-dione]",58%
2,"CCN(CC)[C@H]1CCCC[C@H]1Oc1ccc2c(c1)CN(C1CCC(=O)NC1=O)C2=O (stereo partly drawn) [I-35, 3-(5-(((1R,2S)-2-(diethylamino)cyclohexyl)oxy)-1-oxoisoindolin-2-yl)piperidine-2,6-dione]",10%
3,"O=C1CCC(N2Cc3cc(OC4CCCC4N4CCCC5(CCC5)C4)ccc3C2=O)C(=O)N1 (single isomer, unassigned) [I-179, 3-(5-((2-(6-azaspiro[3.5]nonan-6-yl)cyclopentyl)oxy)-1-oxoisoindolin-2-yl)piperidine-2,6-dione]",85%
4,"O=C1CCC(N2Cc3cc(O[C@H]4CCCC[C@@H]4N4CC(Oc5ccccc5Cl)C4)ccc3C2=O)C(=O)N1 (stereo partly drawn) [I-112, 3-(5-(((1S,2S)-2-(3-(2-chlorophenoxy)azetidin-1-yl)cyclohexyl)oxy)-1-oxoisoindolin-2-yl)piperidine-2,6-dione]",95%
5,"CC1(C)CC(CN[C@H]2CCCC[C@@H]2Oc2ccc3c(c2)CN(C2CCC(=O)NC2=O)C3=O)CCO1 (stereo partly drawn) [I-107, 3-(5-(((1S,2S)-2-(((2,2-dimethyltetrahydro-2H-pyran-4-yl)methyl)amino)cyclohexyl)oxy)-1-oxoisoindolin-2-yl)piperidine-2,6-dione]",89%
6,"CN(C)[C@H]1c2ccccc2C[C@@H]1Oc1ccc2c(c1)CN(C1CCC(=O)NC1=O)C2=O (stereo partly drawn) [I-201, 3-(5-(((1S,2S)-1-(dimethylamino)-2,3-dihydro-1H-inden-2-yl)oxy)-1-oxoisoindolin-2-yl)piperidine-2,6-dione]",46%
7,"O=C1CCC(N2Cc3cc(O[C@H]4CCCC[C@@H]4N4CCCC4)ccc3C2=O)C(=O)N1 (stereo partly drawn) [I-83, 3-(1-oxo-5-(((1S,2S)-2-(pyrrolidin-1-yl)cyclohexyl)oxy)isoindolin-2-yl)piperidine-2,6-dione]",86%
8,"O=C1CCC(N2Cc3cc(O[C@H]4CCCC[C@@H]4NCc4cccnc4)ccc3C2=O)C(=O)N1 (stereo partly drawn) [I-75, 3-(1-oxo-5-(((1S,2S)-2-((pyridin-3-ylmethyl)amino)cyclohexyl)oxy)isoindolin-2-yl)piperidine-2,6-dione]",79%
9,"CC(C)CN[C@H]1CCCCC[C@@H]1Oc1ccc2c(c1)CN(C1CCC(=O)NC1=O)C2=O (stereo partly drawn) [I-61, 3-(5-(((1S,2S)-2-(isobutylamino)cycloheptyl)oxy)-1-oxoisoindolin-2-yl)piperidine-2,6-dione]",84%
10,"O=C1CCC(N2Cc3cc(O[C@H]4CCCC[C@@H]4N4CC(OCc5ccccc5)C4)ccc3C2=O)C(=O)N1 (stereo partly drawn) [I-54, 3-(5-(((1S,2S)-2-(3-(benzyloxy)azetidin-1-yl)cyclohexyl)oxy)-1-oxoisoindolin-2-yl)piperidine-2,6-dione]",91%
11,"O=C1CCC(N2Cc3cc(O[C@H]4CCC[C@@H]4N4CC5CCC(C5)C4)ccc3C2=O)C(=O)N1 (stereo partly drawn) [I-16, 3-(5-(((1S,2S)-2-(3-azabicyclo[3.2.1]octan-3-yl)cyclopentyl)oxy)-1-oxoisoindolin-2-yl)piperidine-2,6-dione]",85%
12,"O=C1CCC(N2Cc3cc(O[C@H]4CCC[C@@H]4NCc4ccncc4)ccc3C2=O)C(=O)N1 (stereo partly drawn) [I-151, 3-(1-oxo-5-(((1S,2S)-2-((pyridin-4-ylmethyl)amino)cyclopentyl)oxy)isoindolin-2-yl)piperidine-2,6-dione]",53%
13,"CN(C)[C@H]1CCCC[C@@H]1Oc1ccc2c(c1)CN(C1CCC(=O)NC1=O)C2=O (stereo partly drawn) [I-80, 3-(5-(((1S,2S)-2-(dimethylamino)cyclohexyl)oxy)-1-oxoisoindolin-2-yl)piperidine-2,6-dione]",65%
14,"O=C1CCC(N2Cc3cc(O[C@H]4CCCC[C@@H]4N4CCOCC4)ccc3C2=O)C(=O)N1 (stereo partly drawn) [I-84, 3-(5-(((1S,2S)-2-morpholinocyclohexyl)oxy)-1-oxoisoindolin-2-yl)piperidine-2,6-dione]",35%
15,"O=C1CCC(N2Cc3cc(O[C@H]4CCCC[C@@H]4NCC4CC(F)(F)C4)ccc3C2=O)C(=O)N1 (stereo partly drawn) [I-122, 3-(5-(((1S,2S)-2-(((3,3-difluorocyclobutyl)methyl)amino)cyclohexyl)oxy)-1-oxoisoindolin-2-yl)piperidine-2,6-dione]",84%
16,"CC1(C)CCCN([C@H]2CCC[C@@H]2Oc2ccc3c(c2)CN(C2CCC(=O)NC2=O)C3=O)C1 (single isomer, unassigned) [I-168]",83%

row,SMILES,IKZF2 % protein reduction at 10 µM
1,"CC1(CN[C@H]2CCCCC[C@@H]2Oc2ccc3c(c2)CN(C2CCC(=O)NC2=O)C3=O)COC1 (stereo partly drawn) [I-66, 3-(5-(((1S,2S)-2-(((3-methyloxetan-3-yl)methyl)amino)cycloheptyl)oxy)-1-oxoisoindolin-2-yl)piperidine-2,6-dione]",81%
2,"CCN(C)[C@H]1CCC[C@@H]1Oc1ccc2c(c1)CN(C1CCC(=O)NC1=O)C2=O (stereo partly drawn) [I-143, 3-(5-(((1S,2S)-2-(ethyl(methyl)amino)cyclopentyl)oxy)-1-oxoisoindolin-2-yl)piperidine-2,6-dione]",81%
3,"O=C1CCC(N2Cc3cc(O[C@H]4CCCCC[C@@H]4NCC45CC(F)(C4)C5)ccc3C2=O)C(=O)N1 (stereo partly drawn) [I-67, 3-(5-(((1S,2S)-2-(((3-fluorobicyclo[1.1.1]pentan-1-yl)methyl)amino)cycloheptyl)oxy)-1-oxoisoindolin-2-yl)piperidine-2,6-dione]",74%
4,"CN1CC[C@H]2CC[C@H](Oc3ccc4c(c3)CN(C3CCC(=O)NC3=O)C4=O)[C@H]21 (relative stereo) [I-3, 3-(5-(((3aR*,6S*,6aS*)-1-methyloctahydrocyclopenta[b]pyrrol-6-yl)oxy)-1-oxoisoindolin-2-yl)piperidine-2,6-dione]",40%
5,"O=C1CCC(N2Cc3cc(O[C@H]4CCC[C@@H]4N4CCCOCC4)ccc3C2=O)C(=O)N1 (stereo in doubt) [I-185, 3-(5-(((1S,2S)-2-(1,4-oxazepan-4-yl)cyclopentyl)oxy)-1-oxoisoindolin-2-yl)piperidine-2,6-dione]",66%
6,"O=C1CCC(N2Cc3cc(O[C@H]4CCCC[C@@H]4N4CC(Oc5cccnc5)C4)ccc3C2=O)C(=O)N1 (stereo partly drawn) [I-135, 3-(1-oxo-5-(((1S,2S)-2-(3-(pyridin-3-yloxy)azetidin-1-yl)cyclohexyl)oxy)isoindolin-2-yl)piperidine-2,6-dione]",92%
7,"N[C@@H]1CCCC[C@@H]1Oc1ccc2c(c1)CN(C1CCC(=O)NC1=O)C2=O (stereo partly drawn) [I-30, 3-(5-(((1S,2R)-2-aminocyclohexyl)oxy)-1-oxoisoindolin-2-yl)piperidine-2,6-dione]",0%
8,"CCN(C)[C@H]1c2ccccc2C[C@@H]1Oc1ccc2c(c1)CN(C1CCC(=O)NC1=O)C2=O (stereo partly drawn) [I-200, 3-(5-(((1S,2S)-1-(ethyl(methyl)amino)-2,3-dihydro-1H-inden-2-yl)oxy)-1-oxoisoindolin-2-yl)piperidine-2,6-dione]",71%
9,"COC1CN([C@H]2CCCCC[C@@H]2Oc2ccc3c(c2)CN(C2CCC(=O)NC2=O)C3=O)C1 (stereo partly drawn) [I-68, 3-(5-(((1S,2S)-2-(3-methoxyazetidin-1-yl)cycloheptyl)oxy)-1-oxoisoindolin-2-yl)piperidine-2,6-dione]",90%
10,"O=C1CCC(N2Cc3cc(O[C@H]4CCCC[C@@H]4NCCC4CCOCC4)ccc3C2=O)C(=O)N1 (stereo partly drawn) [I-104, 3-(1-oxo-5-(((1S,2S)-2-((2-(tetrahydro-2H-pyran-4-yl)ethyl)amino)cyclohexyl)oxy)isoindolin-2-yl)piperidine-2,6-dione]",87%
11,"CN(Cc1ccc(C#N)cc1)[C@H]1CCCC[C@@H]1Oc1ccc2c(c1)CN(C1CCC(=O)NC1=O)C2=O (stereo partly drawn) [I-130, 4-((((1S,2S)-2-((2-(2,6-dioxopiperidin-3-yl)-1-oxoisoindolin-5-yl)oxy)cyclohexyl)(methyl)amino)methyl)benzonitrile]",50%
12,"O=C1CCC(N2Cc3cc(O[C@H]4CCCC[C@@H]4NCCO)ccc3C2=O)C(=O)N1 (stereo partly drawn) [I-82, 3-(5-(((1S,2S)-2-((2-hydroxyethyl)amino)cyclohexyl)oxy)-1-oxoisoindolin-2-yl)piperidine-2,6-dione]",58%
13,"CCN(CC)[C@@H]1CCC[C@@H]1Oc1ccc2c(c1)CN(C1CCC(=O)NC1=O)C2=O (stereo partly drawn) [I-10, 3-(5-(((1S,2R)-2-(diethylamino)cyclopentyl)oxy)-1-oxoisoindolin-2-yl)piperidine-2,6-dione]",0%
14,"CCN[C@H]1CCC[C@@H]1Oc1ccc2c(c1)CN(C1CCC(=O)NC1=O)C2=O (stereo partly drawn) [I-29, 3-(5-(((1S,2S)-2-(ethylamino)cyclopentyl)oxy)-1-oxoisoindolin-2-yl)piperidine-2,6-dione]",80%
15,"O=C1CCC(N2Cc3cc(O[C@H]4CCCC[C@@H]4NCC4COC4)ccc3C2=O)C(=O)N1 (stereo partly drawn) [I-81, 3-(5-(((1S,2S)-2-((oxetan-3-ylmethyl)amino)cyclohexyl)oxy)-1-oxoisoindolin-2-yl)piperidine-2,6-dione]",85%
16,"O=C1CCC(N2Cc3cc(O[C@@H]4CCCC[C@@H]4O)ccc3C2=O)C(=O)N1 (relative stereo) [I-37, 3-(5-(((1R*, 2S*)-2-hydroxycyclohexyl)oxy)-1-oxoisoindolin-2-yl)piperidine-2,6-dione]",0%

# Same assay, conditions: 24 h, read-out: IKZF2 % protein reduction at 10 μM, 24 h
row,SMILES,IKZF2 % protein reduction at 10 µM
1,"CC(C)OC1CCN([C@H]2CCC[C@@H]2Oc2ccc3c(c2)CN(C2CCC(=O)NC2=O)C3=O)CC1 (stereo partly drawn) [I-187, 3-(5-(((1S,2S)-2-(4-isopropoxypiperidin-1-yl)cyclopentyl)oxy)-1-oxoisoindolin-2-yl)piperidine-2,6-dione]",79%
2,"O=C1CCC(N2Cc3cc(O[C@H]4CCC[C@@H]4N4CCSCC4)ccc3C2=O)C(=O)N1 (stereo in doubt) [I-184, 3-(1-oxo-5-(((1S,2S)-2-thiomorpholinocyclopentyl)oxy)isoindolin-2-yl)piperidine-2,6-dione]",38%

# From US11192877B2, “3-(5-hydroxy-1-oxoisoindolin-2-yl)piperidine-2,6-dione derivatives and uses thereof” (Novartis AG, priority 2018, dated 2021)
